Results from ChEMBL document CHEMBL3046111, “Synthesis and insecticidal activity of 1,2,4-oxadiazole and 1,2,4-thiadiazole derivatives” (2011).

How the values were obtained:
Nilaparvata lugens [1] = test: Insecticidal activity against imidacloprid-sensitive Nilaparvata lugens (brown planthopper) fourth-instar larvae reared on compound pre-treated rice seedlings assessed as insect mortality at 200 ppm measured after 7 days; format: functional
Nilaparvata lugens [2] = test: Insecticidal activity against imidacloprid-sensitive Nilaparvata lugens (brown planthopper) fourth-instar larvae reared on compound pre-treated rice seedlings assessed as insect mortality at 100 ppm measured after 7 days; format: functional
Aphis craccivora = test: Insecticidal activity against Aphis craccivora (cowpea aphid) apterous adults reared on broad bean seedlings followed by compound spraying at 200 ppm assessed as insect mortality measured after 4 days; format: functional; conditions: 96 h
Nephotettix cincticeps [3] = test: Insecticidal activity against Nephotettix cincticeps (green rice leafhopper) fourth instar larvae reared on compound pre-treated rice seedlings assessed as insect mortality at 10 ppm measured after 7 days; format: functional
Nilaparvata lugens [4] = test: Insecticidal activity against imidacloprid-sensitive Nilaparvata lugens (brown planthopper) fourth-instar larvae reared on compound pre-treated rice seedlings assessed as insect mortality at 10 ppm measured after 7 days; format: functional
Nephotettix cincticeps [5] = test: Insecticidal activity against Nephotettix cincticeps (green rice leafhopper) fourth instar larvae reared on compound pre-treated rice seedlings assessed as insect mortality at 100 ppm measured after 7 days; format: functional
Nilaparvata lugens [6] = test: Insecticidal activity against imidacloprid-sensitive Nilaparvata lugens (brown planthopper) fourth-instar larvae reared on compound pre-treated rice seedlings assessed as insect mortality at 1 ppm measured after 7 days; format: functional
Nilaparvata lugens [7] = test: Insecticidal activity against imidacloprid-resistant Nilaparvata lugens (brown planthopper) fourth-instar larvae reared on compound pre-treated rice seedlings assessed as insect mortality at 10 ppm measured after 7 days; format: functional
Nilaparvata lugens [8] = test: Insecticidal activity against imidacloprid-resistant Nilaparvata lugens (brown plant hopper) fourth-instar larvae reared on compound pre-treated rice seedlings assessed as insect mortality at 1 ppm measured after 7 days; format: functional
[9] = target: T1, Nicotinic acetylcholine receptor alpha 5 subunit (Musca domestica) (UniProt A9XFY4); test: Inhibition of [3H]EPI from nicotinic acetylcholine receptor in Musca domestica (house fly) nerve-cord membranes at […] incubated at 21 degC for 60 min
T1 sequence (whole entry): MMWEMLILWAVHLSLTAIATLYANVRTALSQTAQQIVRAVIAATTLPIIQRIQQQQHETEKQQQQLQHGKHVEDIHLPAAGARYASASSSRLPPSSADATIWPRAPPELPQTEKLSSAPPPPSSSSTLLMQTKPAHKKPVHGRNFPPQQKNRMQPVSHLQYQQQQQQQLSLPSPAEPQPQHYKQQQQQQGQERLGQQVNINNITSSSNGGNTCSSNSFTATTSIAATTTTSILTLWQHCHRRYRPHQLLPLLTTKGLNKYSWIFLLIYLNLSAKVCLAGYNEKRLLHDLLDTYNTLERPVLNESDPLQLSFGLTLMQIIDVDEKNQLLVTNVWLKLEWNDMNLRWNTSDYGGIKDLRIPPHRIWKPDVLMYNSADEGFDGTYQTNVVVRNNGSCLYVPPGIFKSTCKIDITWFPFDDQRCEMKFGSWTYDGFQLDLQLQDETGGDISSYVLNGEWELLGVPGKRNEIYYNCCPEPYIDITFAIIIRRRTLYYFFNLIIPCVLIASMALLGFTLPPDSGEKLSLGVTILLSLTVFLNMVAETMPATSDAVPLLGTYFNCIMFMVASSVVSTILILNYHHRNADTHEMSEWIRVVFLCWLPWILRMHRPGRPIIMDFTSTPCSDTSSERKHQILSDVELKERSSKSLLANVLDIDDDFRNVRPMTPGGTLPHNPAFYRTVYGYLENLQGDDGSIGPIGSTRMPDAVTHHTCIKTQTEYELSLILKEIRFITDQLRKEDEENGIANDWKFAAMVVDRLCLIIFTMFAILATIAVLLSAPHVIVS

Nilaparvata lugens [10] = test: Insecticidal activity against imidacloprid-resistant Nilaparvata lugens (brown planthopper) fourth-instar larvae reared on compound pre-treated rice seedlings assessed as insect mortality at 100 ppm measured after 7 days; format: functional
[11] = target: T2, Muscarinic acetylcholine receptor DM1 (Drosophila melanogaster) (UniProt P16395); test: Inhibition of [3H]NMS from mAChR in Musca domestica (house fly) nerve-cord membranes at […] incubated at 21 degC for 60 min
T2 sequence (whole entry): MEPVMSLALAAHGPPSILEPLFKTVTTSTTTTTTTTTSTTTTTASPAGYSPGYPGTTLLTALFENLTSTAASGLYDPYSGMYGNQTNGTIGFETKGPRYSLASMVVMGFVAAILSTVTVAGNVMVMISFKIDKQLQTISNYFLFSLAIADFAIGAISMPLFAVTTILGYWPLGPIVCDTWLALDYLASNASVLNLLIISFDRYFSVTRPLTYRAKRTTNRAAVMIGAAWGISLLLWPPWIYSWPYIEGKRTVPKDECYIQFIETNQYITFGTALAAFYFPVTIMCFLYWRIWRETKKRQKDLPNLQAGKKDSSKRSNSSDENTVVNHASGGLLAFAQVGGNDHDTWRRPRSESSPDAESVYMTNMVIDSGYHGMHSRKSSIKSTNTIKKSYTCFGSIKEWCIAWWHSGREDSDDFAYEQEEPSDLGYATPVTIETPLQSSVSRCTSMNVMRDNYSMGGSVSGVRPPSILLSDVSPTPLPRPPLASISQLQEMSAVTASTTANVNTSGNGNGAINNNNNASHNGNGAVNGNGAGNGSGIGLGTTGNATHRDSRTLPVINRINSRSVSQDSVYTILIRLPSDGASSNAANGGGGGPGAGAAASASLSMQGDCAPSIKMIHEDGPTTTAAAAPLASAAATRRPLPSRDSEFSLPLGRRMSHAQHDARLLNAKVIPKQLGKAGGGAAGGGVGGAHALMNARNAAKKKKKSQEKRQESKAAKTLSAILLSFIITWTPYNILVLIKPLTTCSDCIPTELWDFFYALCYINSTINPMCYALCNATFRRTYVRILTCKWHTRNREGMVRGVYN

Nilaparvata lugens [12] = test: Insecticidal activity against imidacloprid-sensitive Nilaparvata lugens (brown planthopper) fourth-instar larvae reared on compound pre-treated rice seedlings assessed as insect mortality at 0.1 ppm measured after 7 days; format: functional
Nilaparvata lugens [13] = test: Insecticidal activity against imidacloprid-resistant Nilaparvata lugens (brown planthopper) fourth-instar larvae reared on compound pre-treated rice seedlings assessed as insect mortality at 0.1 ppm measured after 7 days; format: functional

Structure (SMILES)	mortality at 200 ppm (Nilaparvata lugens [1])	mortality at 100 ppm (Nilaparvata lugens [2])	mortality at 200 ppm (Aphis craccivora)	mortality at 10 ppm (Nephotettix cincticeps [3])	mortality at 10 ppm (Nilaparvata lugens [4])	mortality at 100 ppm (Nephotettix cincticeps [5])	further results
c1cncc(-c2ncns2)c1	100%	100%	100%	40%	60%	70%	
CCCCN1CCC=C(c2nc(C)ns2)C1	100%	100%	30%	10%	30%	20%	
C=CC[n+]1cccc(-c2nc(C)ns2)c1	40%		10%				
Cc1nsc(-c2cccnc2)n1	100%	100%	100%	30%	80%	80%	mortality at 1 ppm (Nilaparvata lugens [6]): 60%; mortality at 10 ppm (Nilaparvata lugens [7]): 90%; mortality at 1 ppm (Nilaparvata lugens [8]): 50%; inhibition [9]: 4%; mortality at 100 ppm (Nilaparvata lugens [10]): 100%; inhibition [11]: 12%
C#CC[n+]1cccc(-c2nc(C)ns2)c1	90%	80%	70%	10%	40%	50%	
Cc1nsc(-c2ccc[n+](C)c2)n1	40%		60%				
CCCCCCCCCCN1CCC=C(c2nc(C)ns2)C1	30%		60%				
Cc1noc(C2=CCCN(C)C2)n1	100%	90%	0%	50%	70%	90%	
C[n+]1cccc(-c2ncns2)c1	80%		30%				
Cc1noc(-c2ccccn2)n1	10%		0%				
CCN1CCC=C(c2nc(C)ns2)C1	100%	100%	40%	10%	40%	50%	
CCC(C)[n+]1cccc(-c2nc(C)ns2)c1 (stereo not drawn)	100%	90%	20%	10%	90%	50%	
Cc1nsc(-c2ccc[n+](CC#N)c2)n1	90%	80%	70%	10%	50%	40%	
O=[N+]([O-])/N=C1\NCCN1Cc1ccc(Cl)nc1 [IMIDACLOPRID]							mortality at 1 ppm (Nilaparvata lugens [6]): 100%; mortality at 10 ppm (Nilaparvata lugens [7]): 100%; mortality at 0.1 ppm (Nilaparvata lugens [12]): 90%; mortality at 1 ppm (Nilaparvata lugens [8]): 80%; mortality at 0.1 ppm (Nilaparvata lugens [13]): 50%
Cc1nsc(C2=CCCN(CC(C)C)C2)n1	100%	100%	50%	0%	70%	10%	
C#CCN1CCC=C(c2ncns2)C1	100%	100%	30%	20%	30%	60%	
CN1CCC=C(c2ncns2)C1	60%		30%				

Structure (SMILES)	mortality at 200 ppm (Nilaparvata lugens [1])	mortality at 100 ppm (Nilaparvata lugens [2])	mortality at 200 ppm (Aphis craccivora)	mortality at 10 ppm (Nephotettix cincticeps [3])	mortality at 10 ppm (Nilaparvata lugens [4])	mortality at 100 ppm (Nephotettix cincticeps [5])	further results
Cc1nsc(-c2ccccn2)n1	40%		30%				
Cc1noc(-c2ccc[n+](C)c2)n1	10%		10%				
Cc1nsc(-c2ccncc2)n1	100%	100%	40%	20%	20%	40%	
Cc1noc(-c2cccnc2)n1	90%	60%	30%			100%	
C=CCN1CCC=C(c2ncns2)C1	100%	100%	40%	10%	60%	60%	
CCCC[n+]1cccc(-c2nc(C)ns2)c1	50%		10%				
C[n+]1cccc(-c2ncno2)c1	60%		20%				
Cc1nsc(C2=CCCN(C)C2)n1	100%	100%	40%	0%	80%	30%	mortality at 1 ppm (Nilaparvata lugens [6]): 30%; mortality at 10 ppm (Nilaparvata lugens [7]): 90%; mortality at 1 ppm (Nilaparvata lugens [8]): 50%; inhibition [9]: 6%; mortality at 100 ppm (Nilaparvata lugens [10]): 100%; inhibition [11]: 62%
Cc1nsc(C2CCCN(C)C2)n1 (stereo not drawn)	30%		0%				
CCCCCCCCCC[n+]1cccc(-c2nc(C)ns2)c1	0%		60%				
Cc1nsc(-c2ccc[n+](Cc3ccccc3)c2)n1	20%		10%				
Cc1noc(-c2ccncc2)n1	10%		0%				
Cc1nsc(C2=CCCN(Cc3ccccc3)C2)n1	100%	100%	10%	0%	10%	30%	
CC[n+]1cccc(-c2nc(C)ns2)c1	20%		20%				
Cc1nsc(C2=CCCN(CC#N)C2)n1	100%	100%	50%	0%	10%	50%	
c1cncc(-c2ncno2)c1	50%		20%				
